Measured values as given in ChEMBL document CHEMBL1201862, “PubChem BioAssay data set” (2004).
Activity calls are given as the source filed them.

Assays:
[1] = molecular target: Sphingosine 1-phosphate receptor 4 (Homo sapiens, UniProt O95977); experiment: Fluorescence dose response cell-based high throughput screening assay for antagonists of the Sphingosine 1-Phosphate Receptor 4 (S1P4). [Related pubchem assays: 1524 (Confirmation in triplicates.), 1510 (Primary screen.)]; format: functional
[2] = non-specific 3'UTR reporter inhibition in Clone20-Shn3RL – cell-based, Renilla luciferase, cherry-picked, counter-screen for Shn3 inhibitor project, dose response (AID 624133); format: functional
[3] = molecular target: Photoreceptor-specific nuclear receptor (Homo sapiens, UniProt Q9Y5X4); format: functional, cell-based;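 also: CHO-S cells with Gal4-NCOR and VP16-NR2E3 two-hybrid luciferase reporter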
Sequence of Photoreceptor-specific nuclear receptor (Q9Y5X4 whole entry, the tested form may be a part): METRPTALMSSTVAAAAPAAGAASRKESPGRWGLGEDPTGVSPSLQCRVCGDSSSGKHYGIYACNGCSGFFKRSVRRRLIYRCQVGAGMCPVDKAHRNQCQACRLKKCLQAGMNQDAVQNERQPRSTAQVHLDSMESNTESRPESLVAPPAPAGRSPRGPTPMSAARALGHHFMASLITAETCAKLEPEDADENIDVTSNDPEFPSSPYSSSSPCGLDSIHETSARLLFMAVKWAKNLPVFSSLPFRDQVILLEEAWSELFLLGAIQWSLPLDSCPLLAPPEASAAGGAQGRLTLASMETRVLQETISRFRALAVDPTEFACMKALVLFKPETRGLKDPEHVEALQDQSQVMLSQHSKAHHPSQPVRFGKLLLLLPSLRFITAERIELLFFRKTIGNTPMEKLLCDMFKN

Beta Lactamase = Beta Lactamase (Pseudomonas aeruginosa, UniProt Q932Y6); experiment: BLA reporter interference, concentration series – BLA reporter cells, FRET fluorescence, artefact control for TLR9-MyD88 binding inhibitor project, dose response (AID 588341); format: cell-based;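 also: cell based assay in CHO-K1 cells stably expressing beta-lactamase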
Sequence of Beta Lactamase (Q932Y6 whole entry): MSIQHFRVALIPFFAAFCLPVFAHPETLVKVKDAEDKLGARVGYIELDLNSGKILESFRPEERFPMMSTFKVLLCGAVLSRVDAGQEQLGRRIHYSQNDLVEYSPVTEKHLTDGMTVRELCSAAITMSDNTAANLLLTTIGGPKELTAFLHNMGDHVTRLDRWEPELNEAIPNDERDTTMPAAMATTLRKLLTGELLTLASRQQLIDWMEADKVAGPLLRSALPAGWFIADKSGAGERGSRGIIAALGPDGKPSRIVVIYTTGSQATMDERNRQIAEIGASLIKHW

[4] = molecular target: Sphingosine 1-phosphate receptor 1 (Homo sapiens, UniProt P21453); format: functional;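 also: Tango beta-arrestin reporter U2OS cells stimulated with S1P near its EC80; inhibitor potency meaning antagonism of receptor activation by the natural agonist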
Sequence of Sphingosine 1-phosphate receptor 1 (P21453 whole entry): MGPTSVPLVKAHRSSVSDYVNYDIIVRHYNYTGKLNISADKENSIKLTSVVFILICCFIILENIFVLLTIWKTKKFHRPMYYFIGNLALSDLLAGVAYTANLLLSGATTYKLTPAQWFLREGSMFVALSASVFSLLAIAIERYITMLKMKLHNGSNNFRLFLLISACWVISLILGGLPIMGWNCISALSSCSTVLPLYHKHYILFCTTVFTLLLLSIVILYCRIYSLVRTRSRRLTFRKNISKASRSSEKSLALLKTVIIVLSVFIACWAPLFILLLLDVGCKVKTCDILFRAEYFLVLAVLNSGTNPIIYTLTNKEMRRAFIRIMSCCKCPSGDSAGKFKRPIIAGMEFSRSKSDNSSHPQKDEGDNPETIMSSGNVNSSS

INS1 = experiment: INS-1E survival protection against cytokine death – cell-based, luminescence, retest, dose response (AID 449756); format: functional; details: Rattus norvegicus;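 also: cell death triggered by IL-1 beta plus TNF-alpha plus IFN-gamma mixture; protective hits raise ATP signal compared with cytokine alone wells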
[5] = off-target signal loss in HeLa-CEM21 co-culture – HeLa F-luc CTL cells, cherry-picked, counter-screen for HIV-1 Env fusion inhibitor project, dose response (AID 652040); format: functional, cell-based;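 also: potency for signal decrease marking cytotoxic or nonspecific inhibition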
[6] = molecular target: T1, Serine/threonine-protein phosphatase (Homo sapiens, UniProt Q9BPW0); experiment: inhibition of protein phosphatase 5 activity – biochemical, fluorescence, dose response (AID 2395)
T1 sequence (Q9BPW0 whole entry): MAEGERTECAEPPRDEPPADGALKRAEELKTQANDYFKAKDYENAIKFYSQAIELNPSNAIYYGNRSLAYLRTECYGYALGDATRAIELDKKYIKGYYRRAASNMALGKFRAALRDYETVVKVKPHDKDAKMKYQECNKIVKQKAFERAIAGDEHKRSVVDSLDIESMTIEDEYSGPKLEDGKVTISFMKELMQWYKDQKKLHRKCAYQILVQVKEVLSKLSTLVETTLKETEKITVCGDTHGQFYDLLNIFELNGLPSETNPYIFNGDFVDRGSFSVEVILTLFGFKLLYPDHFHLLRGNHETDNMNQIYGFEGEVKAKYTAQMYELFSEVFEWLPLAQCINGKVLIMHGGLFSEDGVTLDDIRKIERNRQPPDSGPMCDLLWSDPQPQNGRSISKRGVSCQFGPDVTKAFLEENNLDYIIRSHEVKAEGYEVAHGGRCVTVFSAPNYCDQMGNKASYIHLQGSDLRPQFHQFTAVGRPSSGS

[7] = molecular target: Ras and Rab interactor 1/Tyrosine-protein kinase ABL1 (Homo sapiens, UniProt P00519+Q13671); format: functional;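 also: biochemical TR-FRET dose-response test measuring inhibition of binding between Rin1 and Abl proteins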
Sequence of Ras and Rab interactor 1/Tyrosine-protein kinase ABL1 (P00519 whole entry): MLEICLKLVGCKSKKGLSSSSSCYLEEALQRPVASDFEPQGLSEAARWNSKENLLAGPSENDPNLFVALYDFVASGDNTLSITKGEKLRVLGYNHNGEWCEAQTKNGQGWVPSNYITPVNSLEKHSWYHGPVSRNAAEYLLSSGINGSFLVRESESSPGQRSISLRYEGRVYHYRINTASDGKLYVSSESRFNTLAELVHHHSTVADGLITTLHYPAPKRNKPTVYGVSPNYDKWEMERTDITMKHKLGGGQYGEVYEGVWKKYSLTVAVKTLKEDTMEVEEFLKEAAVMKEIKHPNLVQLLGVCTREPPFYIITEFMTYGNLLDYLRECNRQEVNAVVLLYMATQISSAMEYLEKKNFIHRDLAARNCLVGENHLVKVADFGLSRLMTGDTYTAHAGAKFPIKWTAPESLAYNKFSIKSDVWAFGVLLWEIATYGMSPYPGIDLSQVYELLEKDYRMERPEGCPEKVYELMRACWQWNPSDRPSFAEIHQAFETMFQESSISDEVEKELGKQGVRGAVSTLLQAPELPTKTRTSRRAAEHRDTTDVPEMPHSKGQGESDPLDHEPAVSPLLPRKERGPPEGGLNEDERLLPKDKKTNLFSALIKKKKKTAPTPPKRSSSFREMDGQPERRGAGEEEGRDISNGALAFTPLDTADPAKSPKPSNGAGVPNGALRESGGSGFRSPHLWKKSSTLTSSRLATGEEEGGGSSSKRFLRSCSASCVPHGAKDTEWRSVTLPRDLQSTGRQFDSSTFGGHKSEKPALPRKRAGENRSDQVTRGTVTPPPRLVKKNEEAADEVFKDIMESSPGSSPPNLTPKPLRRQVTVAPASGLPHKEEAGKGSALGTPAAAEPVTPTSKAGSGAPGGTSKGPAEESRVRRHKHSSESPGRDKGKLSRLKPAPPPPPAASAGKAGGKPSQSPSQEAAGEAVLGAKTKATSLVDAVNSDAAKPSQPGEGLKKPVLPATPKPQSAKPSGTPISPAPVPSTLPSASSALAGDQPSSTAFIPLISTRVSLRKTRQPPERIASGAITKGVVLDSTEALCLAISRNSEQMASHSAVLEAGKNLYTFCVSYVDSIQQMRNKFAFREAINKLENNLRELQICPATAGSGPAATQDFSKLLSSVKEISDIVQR
Sequence of Ras and Rab interactor 1/Tyrosine-protein kinase ABL1 (Q13671 whole entry): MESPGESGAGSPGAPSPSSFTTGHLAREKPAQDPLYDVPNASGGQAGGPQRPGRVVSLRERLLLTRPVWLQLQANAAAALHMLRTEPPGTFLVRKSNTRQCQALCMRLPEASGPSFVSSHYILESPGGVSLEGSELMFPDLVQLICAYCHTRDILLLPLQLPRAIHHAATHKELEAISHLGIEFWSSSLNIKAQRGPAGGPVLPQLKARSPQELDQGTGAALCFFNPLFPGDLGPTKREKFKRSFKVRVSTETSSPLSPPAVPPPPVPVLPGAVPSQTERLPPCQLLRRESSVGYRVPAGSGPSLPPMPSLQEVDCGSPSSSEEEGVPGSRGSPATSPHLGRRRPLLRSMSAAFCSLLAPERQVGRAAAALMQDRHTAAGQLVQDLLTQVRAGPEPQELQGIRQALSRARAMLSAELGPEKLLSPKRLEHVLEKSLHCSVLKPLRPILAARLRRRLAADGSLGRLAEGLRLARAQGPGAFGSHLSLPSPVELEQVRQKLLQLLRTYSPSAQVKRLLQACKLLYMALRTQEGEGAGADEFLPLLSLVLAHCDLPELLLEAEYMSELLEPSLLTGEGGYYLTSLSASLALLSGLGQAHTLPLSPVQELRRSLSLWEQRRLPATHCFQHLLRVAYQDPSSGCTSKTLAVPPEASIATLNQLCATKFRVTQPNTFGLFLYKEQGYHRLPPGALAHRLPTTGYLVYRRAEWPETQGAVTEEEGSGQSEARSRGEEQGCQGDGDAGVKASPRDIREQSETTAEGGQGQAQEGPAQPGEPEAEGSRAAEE

Hexokinase HKDC1 = molecular target: T2, Hexokinase HKDC1 (Homo sapiens, UniProt Q2TB90); experiment: activation of HKDC1 glucose phosphorylation – biochemical, W721R variant, dose response (AID 504730); format: functional
T2 sequence (Q2TB90 whole entry): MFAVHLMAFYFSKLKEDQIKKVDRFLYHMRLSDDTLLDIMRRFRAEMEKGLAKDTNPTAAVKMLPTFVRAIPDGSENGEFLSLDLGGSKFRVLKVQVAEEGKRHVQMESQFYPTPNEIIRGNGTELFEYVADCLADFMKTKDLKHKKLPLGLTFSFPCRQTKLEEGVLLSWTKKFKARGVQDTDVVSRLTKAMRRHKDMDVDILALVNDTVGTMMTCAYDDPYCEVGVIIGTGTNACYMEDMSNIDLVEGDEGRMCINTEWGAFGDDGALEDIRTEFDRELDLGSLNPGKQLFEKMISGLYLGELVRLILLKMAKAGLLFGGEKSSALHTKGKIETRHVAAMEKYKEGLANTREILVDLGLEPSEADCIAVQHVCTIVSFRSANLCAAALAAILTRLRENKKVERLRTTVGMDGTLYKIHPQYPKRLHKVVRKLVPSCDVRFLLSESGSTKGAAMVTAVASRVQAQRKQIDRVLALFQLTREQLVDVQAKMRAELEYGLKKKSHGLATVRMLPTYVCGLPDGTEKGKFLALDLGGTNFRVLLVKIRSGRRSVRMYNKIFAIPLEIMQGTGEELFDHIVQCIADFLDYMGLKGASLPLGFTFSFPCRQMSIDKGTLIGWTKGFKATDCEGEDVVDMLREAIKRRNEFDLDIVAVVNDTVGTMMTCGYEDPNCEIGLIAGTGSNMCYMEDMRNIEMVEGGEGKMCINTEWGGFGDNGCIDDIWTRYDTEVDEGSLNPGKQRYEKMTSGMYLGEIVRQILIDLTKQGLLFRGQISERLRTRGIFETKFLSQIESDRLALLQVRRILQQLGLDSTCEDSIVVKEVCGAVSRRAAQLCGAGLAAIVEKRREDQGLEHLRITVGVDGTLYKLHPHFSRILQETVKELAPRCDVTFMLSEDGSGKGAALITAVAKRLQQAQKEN

[8] = viability of HCT116 lacking mutant beta-catenin – cell-based, human colon tumor, dose response (AID 1045); format: functional;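 also: HCT116 colon tumor cells with beta catenin knocked out; cells exposed to compound for 60 hours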
[9] = viability of uninfected HEp-2 cells – cell-based, HTS, cytotoxicity control for RSV inhibitor project, dose response (AID 2410); format: functional; details: human respiratory syncytial virus
Protein skinhead-1 = molecular target: T3, Protein skinhead-1 (Caenorhabditis elegans, UniProt P34707); format: functional
T3 sequence (P34707 whole entry): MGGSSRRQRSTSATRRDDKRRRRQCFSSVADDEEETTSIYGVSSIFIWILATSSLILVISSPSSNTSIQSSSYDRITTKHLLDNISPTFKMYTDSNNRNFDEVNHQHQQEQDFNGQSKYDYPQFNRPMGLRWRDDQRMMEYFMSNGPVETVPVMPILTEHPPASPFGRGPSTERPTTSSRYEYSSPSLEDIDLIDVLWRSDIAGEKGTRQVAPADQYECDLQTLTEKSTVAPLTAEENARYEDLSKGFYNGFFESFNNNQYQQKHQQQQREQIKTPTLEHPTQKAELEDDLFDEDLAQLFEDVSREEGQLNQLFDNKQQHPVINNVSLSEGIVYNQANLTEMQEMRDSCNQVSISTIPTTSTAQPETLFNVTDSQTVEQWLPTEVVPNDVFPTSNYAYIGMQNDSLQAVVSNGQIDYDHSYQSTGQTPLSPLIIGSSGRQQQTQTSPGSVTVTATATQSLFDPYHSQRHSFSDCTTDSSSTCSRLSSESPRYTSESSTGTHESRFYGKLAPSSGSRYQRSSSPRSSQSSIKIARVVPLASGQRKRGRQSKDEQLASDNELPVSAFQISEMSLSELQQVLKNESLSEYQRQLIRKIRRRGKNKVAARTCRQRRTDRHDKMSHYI

Sequence of Sphingosine 1-phosphate receptor 4 (O95977 whole entry): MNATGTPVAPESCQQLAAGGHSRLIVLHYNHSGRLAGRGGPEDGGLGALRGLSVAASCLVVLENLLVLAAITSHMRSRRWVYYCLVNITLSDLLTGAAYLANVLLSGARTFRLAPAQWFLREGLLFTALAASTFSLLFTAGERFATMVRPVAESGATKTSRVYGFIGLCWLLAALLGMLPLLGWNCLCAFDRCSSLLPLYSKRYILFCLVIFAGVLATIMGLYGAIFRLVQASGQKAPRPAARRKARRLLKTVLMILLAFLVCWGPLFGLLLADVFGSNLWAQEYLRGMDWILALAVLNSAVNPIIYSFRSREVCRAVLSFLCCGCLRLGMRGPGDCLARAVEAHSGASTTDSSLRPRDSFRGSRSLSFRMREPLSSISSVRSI

O=C(Nc1ccccc1Cl)/C(Cl)=C(\Cl)[S+]([O-])c1ccccc1 (centres undefined)
IC50 [1]: 0.541 µM (active) | AC50 [2]: 5.77 µM (active) | IC50 [3]: 2.92 µM (active) | IC50 (Beta Lactamase): > 5.53 µM (active) | IC50 [4]: 10.3 µM (not active) | AC50 (INS1): 2.07 µM (active)

CCCCCCCCCCCCCCCCn1cc[n+](C)c1
EC50 (cells): 0.44 µM (active) | AC50 [5]: 7.76 µM (active)

O=C(NC1(O)C(=O)c2ccccc2C1=O)c1ccccc1
IC50 [6]: > 0.828 µM (active) | IC50 [7]: 25.5 µM (inactive)

Cc1cc(C)nc(/N=c2/ssnc2Cl)c1
EC50 (Hexokinase HKDC1): 43.1 µM (inactive) | EC50 [8]: 25.8 µM (active) | CC50 [9]: 17.4 µM (active)

Cc1ccc(C)c(S(=O)(=O)/N=C2\C=C(NS(=O)(=O)c3ccccc3)C(=O)c3ccccc32)c1
IC50 (Protein skinhead-1): > 100 µM (inactive)
